Legend:
[1] = biological target: 5-hydroxytryptamine receptor 7 (Homo sapiens) (UniProt P34969); conditions: Compound concentration 10.0 uM
[2] = biological target: Mitogen-activated protein kinase 10 (Homo sapiens) (UniProt P53779); experiment: MAPK10 SGC Tm panel (DSF); conditions: for ΔTm: Compound concentration 10.0 uM
[3] = biological target: Proto-oncogene tyrosine-protein kinase Src (Homo sapiens) (UniProt P12931); experiment: SRC SGC Tm panel (DSF); conditions: for ΔTm: Compound concentration 10.0 uM
Proto-oncogene tyrosine-protein kinase Src (Homo sapiens), sequence (P12931 2-536 limits assumed): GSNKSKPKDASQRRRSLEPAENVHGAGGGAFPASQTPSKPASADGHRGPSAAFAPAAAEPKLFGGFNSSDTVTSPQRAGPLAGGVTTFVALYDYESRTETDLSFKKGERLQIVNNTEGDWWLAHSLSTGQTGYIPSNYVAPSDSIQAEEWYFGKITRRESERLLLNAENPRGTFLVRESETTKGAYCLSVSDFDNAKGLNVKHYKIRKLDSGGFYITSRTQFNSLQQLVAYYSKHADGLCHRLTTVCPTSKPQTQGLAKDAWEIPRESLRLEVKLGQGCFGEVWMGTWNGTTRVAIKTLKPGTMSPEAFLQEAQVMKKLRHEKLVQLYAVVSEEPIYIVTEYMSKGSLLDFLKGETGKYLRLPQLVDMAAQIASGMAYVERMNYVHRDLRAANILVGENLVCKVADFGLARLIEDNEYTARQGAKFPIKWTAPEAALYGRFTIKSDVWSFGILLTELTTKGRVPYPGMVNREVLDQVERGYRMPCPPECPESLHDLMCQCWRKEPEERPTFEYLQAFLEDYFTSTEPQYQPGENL

[4] = biological target: Dual specificity mitogen-activated protein kinase kinase 1 (Homo sapiens) (UniProt Q02750); experiment: MAP2K1 SGC Tm panel (DSF); conditions: for ΔTm: Compound concentration 10.0 uM
Dual specificity mitogen-activated protein kinase kinase 1 (Homo sapiens), sequence (Q02750 whole entry): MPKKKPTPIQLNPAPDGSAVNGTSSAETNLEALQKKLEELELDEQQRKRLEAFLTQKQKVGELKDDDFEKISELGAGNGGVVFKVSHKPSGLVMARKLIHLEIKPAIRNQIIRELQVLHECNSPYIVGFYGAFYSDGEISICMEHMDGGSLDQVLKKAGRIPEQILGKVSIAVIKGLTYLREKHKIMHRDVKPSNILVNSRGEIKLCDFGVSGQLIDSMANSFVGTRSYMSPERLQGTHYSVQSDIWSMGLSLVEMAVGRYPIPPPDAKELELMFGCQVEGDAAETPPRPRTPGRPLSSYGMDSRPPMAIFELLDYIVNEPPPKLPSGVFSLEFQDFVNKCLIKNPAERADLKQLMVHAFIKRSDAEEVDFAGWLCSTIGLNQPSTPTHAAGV

[5] = biological target: Fibroblast growth factor receptor 1 (Homo sapiens) (UniProt P11362); experiment: FGFR1 SGC Tm panel (DSF); conditions: for ΔTm: Compound concentration 10.0 uM
Fibroblast growth factor receptor 1 (Homo sapiens), sequence (P11362 22-822 limits assumed): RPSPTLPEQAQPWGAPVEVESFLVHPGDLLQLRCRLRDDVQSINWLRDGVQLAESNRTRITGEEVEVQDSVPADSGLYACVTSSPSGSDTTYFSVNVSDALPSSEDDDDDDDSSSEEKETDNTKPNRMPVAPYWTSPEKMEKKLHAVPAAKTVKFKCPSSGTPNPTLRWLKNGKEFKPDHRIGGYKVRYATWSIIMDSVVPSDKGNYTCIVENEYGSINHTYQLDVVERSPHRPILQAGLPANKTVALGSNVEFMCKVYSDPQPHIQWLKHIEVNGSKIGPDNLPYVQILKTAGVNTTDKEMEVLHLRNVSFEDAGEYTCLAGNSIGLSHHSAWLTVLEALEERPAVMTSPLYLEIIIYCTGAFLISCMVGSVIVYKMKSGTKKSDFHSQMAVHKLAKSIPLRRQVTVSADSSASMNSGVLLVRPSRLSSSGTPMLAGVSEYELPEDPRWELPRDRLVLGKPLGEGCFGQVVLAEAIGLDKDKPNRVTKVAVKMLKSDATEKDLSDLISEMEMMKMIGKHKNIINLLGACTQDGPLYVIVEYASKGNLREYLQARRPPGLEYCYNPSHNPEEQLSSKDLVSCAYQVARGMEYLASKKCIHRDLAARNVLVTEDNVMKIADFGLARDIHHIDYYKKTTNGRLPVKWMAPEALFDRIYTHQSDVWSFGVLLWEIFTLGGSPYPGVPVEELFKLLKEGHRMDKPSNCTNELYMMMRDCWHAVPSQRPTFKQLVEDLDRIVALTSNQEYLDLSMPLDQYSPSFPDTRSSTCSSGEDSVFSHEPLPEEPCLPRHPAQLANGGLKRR

[6] = biological target: T1, Cyclin-G-associated kinase (Homo sapiens) (UniProt O14976); experiment: GAK SGC Tm panel (DSF); conditions: for ΔTm: Compound concentration 10.0 uM
T1 sequence (whole entry): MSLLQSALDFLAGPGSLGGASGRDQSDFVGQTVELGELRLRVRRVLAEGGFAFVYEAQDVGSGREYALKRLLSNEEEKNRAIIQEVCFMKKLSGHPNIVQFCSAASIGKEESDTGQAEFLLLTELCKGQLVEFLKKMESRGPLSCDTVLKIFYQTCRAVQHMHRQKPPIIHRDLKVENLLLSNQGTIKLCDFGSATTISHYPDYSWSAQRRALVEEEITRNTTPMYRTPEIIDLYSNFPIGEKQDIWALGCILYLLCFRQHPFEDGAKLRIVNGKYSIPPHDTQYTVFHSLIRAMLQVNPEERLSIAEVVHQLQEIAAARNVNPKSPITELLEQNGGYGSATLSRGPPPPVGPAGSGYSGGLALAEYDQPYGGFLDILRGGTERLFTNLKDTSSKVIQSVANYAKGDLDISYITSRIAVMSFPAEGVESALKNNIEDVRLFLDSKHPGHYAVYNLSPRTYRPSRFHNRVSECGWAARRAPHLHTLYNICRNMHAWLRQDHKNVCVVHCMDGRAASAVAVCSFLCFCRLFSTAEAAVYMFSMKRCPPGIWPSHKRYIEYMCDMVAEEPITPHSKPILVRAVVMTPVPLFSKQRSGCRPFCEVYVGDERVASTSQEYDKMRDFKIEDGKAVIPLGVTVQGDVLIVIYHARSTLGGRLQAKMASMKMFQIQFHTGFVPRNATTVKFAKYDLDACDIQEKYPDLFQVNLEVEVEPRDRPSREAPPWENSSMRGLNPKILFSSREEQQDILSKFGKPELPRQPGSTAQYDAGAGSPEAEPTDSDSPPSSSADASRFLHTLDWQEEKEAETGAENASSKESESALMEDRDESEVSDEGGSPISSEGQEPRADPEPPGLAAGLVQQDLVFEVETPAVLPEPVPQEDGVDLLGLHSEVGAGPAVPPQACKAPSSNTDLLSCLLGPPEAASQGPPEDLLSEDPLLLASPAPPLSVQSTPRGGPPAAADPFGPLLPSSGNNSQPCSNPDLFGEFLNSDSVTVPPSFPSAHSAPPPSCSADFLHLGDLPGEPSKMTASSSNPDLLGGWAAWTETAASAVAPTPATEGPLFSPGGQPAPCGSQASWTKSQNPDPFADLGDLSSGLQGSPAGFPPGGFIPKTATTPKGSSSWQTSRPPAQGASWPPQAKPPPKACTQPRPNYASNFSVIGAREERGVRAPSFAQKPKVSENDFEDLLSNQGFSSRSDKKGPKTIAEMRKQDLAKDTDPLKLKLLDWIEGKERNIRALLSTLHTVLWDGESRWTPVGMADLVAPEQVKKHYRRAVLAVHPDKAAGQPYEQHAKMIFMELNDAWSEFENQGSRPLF

[7] = biological target: T2, Serine/threonine-protein kinase 17A (Homo sapiens) (UniProt Q9UEE5); experiment: STK17A SGC Tm panel (DSF); conditions: for ΔTm: Compound concentration 10.0 uM
T2 sequence (whole entry): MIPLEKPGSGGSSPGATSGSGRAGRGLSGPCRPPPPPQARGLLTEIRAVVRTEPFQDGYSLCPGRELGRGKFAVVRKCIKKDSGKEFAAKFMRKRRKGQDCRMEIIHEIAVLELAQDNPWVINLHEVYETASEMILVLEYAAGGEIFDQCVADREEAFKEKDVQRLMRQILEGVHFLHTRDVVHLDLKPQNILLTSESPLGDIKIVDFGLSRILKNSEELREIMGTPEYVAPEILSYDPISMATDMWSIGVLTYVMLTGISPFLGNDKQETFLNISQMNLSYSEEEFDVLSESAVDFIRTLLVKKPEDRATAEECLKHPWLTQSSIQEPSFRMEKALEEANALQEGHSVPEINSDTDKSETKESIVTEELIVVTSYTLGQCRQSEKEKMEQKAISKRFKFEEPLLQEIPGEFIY

[8] = biological target: Ephrin type-A receptor 5 (Homo sapiens) (UniProt P54756); experiment: EPHA5 SGC Tm panel (DSF); conditions: for ΔTm: Compound concentration 10.0 uM
Ephrin type-A receptor 5 (Homo sapiens), sequence (P54756 whole entry): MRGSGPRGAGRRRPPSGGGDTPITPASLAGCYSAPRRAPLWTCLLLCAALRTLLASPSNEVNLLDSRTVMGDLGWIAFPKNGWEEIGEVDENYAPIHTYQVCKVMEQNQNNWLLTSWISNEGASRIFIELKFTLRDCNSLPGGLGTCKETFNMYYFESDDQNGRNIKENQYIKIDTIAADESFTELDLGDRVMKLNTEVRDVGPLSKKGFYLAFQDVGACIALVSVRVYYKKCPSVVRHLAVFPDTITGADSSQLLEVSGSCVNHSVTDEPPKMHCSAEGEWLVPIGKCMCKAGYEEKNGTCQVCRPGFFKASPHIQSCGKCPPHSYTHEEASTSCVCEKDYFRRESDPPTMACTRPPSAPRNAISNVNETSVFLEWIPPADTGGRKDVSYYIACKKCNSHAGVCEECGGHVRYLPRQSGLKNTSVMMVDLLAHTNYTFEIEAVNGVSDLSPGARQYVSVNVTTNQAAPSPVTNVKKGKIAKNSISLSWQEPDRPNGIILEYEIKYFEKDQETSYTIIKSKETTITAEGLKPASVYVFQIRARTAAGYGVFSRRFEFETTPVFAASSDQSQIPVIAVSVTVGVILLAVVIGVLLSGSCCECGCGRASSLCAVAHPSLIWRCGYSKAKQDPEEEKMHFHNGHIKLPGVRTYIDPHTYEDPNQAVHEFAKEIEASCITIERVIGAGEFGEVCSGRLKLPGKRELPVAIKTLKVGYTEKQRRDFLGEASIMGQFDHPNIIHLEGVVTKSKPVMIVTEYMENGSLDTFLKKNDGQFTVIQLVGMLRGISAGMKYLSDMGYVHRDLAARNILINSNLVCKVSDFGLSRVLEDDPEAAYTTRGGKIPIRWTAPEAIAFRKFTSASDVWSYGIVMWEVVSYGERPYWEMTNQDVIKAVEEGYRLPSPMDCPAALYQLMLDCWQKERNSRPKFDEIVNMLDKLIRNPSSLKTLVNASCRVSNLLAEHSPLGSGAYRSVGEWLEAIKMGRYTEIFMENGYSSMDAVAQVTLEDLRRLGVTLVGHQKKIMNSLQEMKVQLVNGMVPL

[9] = biological target: Dual specificity tyrosine-phosphorylation-regulated kinase 1A (Homo sapiens) (UniProt Q13627); experiment: DYRK1A SGC Tm panel (DSF); conditions: for ΔTm: Compound concentration 10.0 uM
[10] = biological target: T3, Serine/threonine-protein kinase Nek2 (Homo sapiens) (UniProt P51955); experiment: NEK2 SGC Tm panel (DSF); conditions: for ΔTm: Compound concentration 10.0 uM
T3 sequence (whole entry): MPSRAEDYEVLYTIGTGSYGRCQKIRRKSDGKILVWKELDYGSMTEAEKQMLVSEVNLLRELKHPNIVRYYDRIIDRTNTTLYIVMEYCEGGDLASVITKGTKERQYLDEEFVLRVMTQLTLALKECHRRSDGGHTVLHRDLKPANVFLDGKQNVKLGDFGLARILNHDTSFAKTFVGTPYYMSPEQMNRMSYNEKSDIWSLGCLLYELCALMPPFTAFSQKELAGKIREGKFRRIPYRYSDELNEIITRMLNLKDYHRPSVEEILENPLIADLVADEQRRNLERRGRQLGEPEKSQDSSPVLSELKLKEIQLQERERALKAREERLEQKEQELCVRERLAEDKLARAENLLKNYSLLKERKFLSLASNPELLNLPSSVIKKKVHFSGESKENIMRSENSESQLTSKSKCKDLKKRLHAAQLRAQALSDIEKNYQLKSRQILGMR

[11] = biological target: Death-associated protein kinase 1 (Homo sapiens) (UniProt P53355); experiment: DAPK1 SGC Tm panel (DSF); conditions: for ΔTm: Compound concentration 10.0 uM
Death-associated protein kinase 1 (Homo sapiens), sequence (P53355 whole entry, looked up): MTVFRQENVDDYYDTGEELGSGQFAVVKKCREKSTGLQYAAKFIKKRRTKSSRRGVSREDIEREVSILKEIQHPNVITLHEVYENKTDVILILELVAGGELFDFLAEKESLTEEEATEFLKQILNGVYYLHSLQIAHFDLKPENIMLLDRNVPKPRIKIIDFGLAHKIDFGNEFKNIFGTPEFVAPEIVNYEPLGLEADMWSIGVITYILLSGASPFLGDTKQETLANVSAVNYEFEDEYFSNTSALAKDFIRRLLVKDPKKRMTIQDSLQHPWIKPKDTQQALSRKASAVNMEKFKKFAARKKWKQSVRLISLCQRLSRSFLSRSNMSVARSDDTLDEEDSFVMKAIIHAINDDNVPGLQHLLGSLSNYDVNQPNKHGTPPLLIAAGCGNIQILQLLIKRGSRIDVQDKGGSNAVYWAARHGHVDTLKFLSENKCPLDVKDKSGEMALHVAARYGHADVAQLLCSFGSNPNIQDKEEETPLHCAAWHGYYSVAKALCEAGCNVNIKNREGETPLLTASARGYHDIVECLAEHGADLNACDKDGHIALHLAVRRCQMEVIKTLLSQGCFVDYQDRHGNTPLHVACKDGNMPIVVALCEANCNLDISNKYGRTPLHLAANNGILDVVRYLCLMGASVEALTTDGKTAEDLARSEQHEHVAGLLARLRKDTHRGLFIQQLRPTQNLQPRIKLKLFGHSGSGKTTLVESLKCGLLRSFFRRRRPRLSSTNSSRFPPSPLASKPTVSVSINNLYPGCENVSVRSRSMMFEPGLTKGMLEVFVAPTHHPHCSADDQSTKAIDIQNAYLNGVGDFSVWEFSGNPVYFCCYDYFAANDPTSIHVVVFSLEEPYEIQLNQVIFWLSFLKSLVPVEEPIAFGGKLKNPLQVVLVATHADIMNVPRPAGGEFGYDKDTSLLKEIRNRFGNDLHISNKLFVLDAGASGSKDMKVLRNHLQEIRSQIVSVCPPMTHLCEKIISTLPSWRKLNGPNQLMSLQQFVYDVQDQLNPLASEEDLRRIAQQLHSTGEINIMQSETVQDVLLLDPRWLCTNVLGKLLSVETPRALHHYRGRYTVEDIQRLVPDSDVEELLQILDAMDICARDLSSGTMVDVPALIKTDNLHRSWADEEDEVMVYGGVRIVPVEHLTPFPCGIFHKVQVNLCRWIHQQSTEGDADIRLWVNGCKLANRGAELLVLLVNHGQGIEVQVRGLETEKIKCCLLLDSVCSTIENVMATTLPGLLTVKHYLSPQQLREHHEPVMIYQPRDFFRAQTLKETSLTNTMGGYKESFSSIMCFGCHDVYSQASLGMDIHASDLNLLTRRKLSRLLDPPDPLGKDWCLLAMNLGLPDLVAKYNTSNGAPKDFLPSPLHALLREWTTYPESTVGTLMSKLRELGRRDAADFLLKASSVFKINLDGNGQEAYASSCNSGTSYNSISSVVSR

[12] = biological target: Sigma non-opioid intracellular receptor 1 (Homo sapiens, UniProt Q99720); conditions: Compound concentration 10.0 uM
Sigma non-opioid intracellular receptor 1, sequence (Q99720 whole entry): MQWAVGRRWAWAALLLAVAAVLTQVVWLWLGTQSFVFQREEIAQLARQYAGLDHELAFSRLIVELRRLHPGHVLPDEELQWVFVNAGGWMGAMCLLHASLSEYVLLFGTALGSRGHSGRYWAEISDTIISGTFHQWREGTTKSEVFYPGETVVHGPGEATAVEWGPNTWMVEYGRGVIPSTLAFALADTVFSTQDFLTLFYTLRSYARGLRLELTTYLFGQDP

[13] = biological target: Serine/threonine-protein kinase WNK1 (Homo sapiens) (UniProt Q9H4A3); experiment: WNK1 SGC Tm panel (DSF); conditions: for ΔTm: Compound concentration 10.0 uM
[14] = biological target: Alpha-2A adrenergic receptor (Homo sapiens) (UniProt P08913); conditions: Compound concentration 10.0 uM

Mitogen-activated protein kinase 10 (Homo sapiens), sequence (P53779 whole entry): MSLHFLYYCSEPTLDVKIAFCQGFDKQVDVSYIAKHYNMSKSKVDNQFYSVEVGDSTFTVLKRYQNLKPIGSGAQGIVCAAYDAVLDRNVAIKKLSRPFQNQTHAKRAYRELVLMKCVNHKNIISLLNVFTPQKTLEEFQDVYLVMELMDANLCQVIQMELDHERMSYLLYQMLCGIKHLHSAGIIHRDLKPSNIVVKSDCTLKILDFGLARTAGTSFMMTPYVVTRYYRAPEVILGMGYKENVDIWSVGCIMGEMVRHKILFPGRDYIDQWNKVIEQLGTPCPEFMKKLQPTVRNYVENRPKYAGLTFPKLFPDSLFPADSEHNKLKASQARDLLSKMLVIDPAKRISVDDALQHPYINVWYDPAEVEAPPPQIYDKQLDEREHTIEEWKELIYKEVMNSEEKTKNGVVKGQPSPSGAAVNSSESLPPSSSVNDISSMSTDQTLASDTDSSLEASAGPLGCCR

Row | inhibition [1] | delta Tm Staurosporine positive control [2] | ΔTm [2] | delta Tm Staurosporine positive control [3] | ΔTm [3] | delta Tm Staurosporine positive control [4] | ΔTm [4] | delta Tm Staurosporine positive control [5] | ΔTm [5] | delta Tm Staurosporine positive control [6] | ΔTm [6] | delta Tm Staurosporine positive control [7] | ΔTm [7] | delta Tm Staurosporine positive control [8] | ΔTm [8] | delta Tm Staurosporine positive control [9] | ΔTm [9] | delta Tm Staurosporine positive control [10] | ΔTm [10] | SMILES | delta Tm Staurosporine positive control [11] | other results
1 | 23% | 7.41 | 1.8 | 5.5 | 0.346 | 5.5 | -0.126 | 5.65 | -0.166 | 8.71 | -0.0366 | 12.6 | 1.03 | 8.98 | 0.273 | 9.3 | -0.834 | 3.7 | -0.146 | C[C@H](NC(=O)c1cn(C2(C#N)CC2)cn1)C(=O)Nc1nc(-c2cccc(-c3ccn(C)n3)c2)cs1 | 9.19 | ΔTm [11]: 0.0306; inhibition [12]: 83.2%; delta Tm Staurosporine positive control [13]: 0.638; ΔTm [13]: 0.361; inhibition [14]: 10.5%
2 | 3.33% | 7.41 | 0.595 | 5.5 | -0.156 | 5.5 | -0.11 | 5.65 | -0.0579 | 8.71 | -0.217 | 12.6 | 0.566 | 8.98 | 0.13 | 9.3 | -0.76 | 3.7 | 0.182 | COC[C@H](NC(=O)c1ccn(S(C)(=O)=O)c1)C(=O)Nc1nc(-c2cccc(-c3ccn(C)n3)c2)cs1 | 9.19 | ΔTm [11]: -0.136; inhibition [12]: 1.62%; delta Tm Staurosporine positive control [13]: 0.638; ΔTm [13]: 0.232; inhibition [14]: 5.84%

Source: ChEMBL document CHEMBL5303766, “Data for DCP probe FHT-2344” (2022)
